For data set [1] the following is noted: human, in vivo.
From the text: Participants in the Pilot PK Cohort were enrolled and treated in a staggered manner (at least 3 days between the first and second participant).
The dosing regimen will then change to a twice-daily (BID) or three-times-daily (TID) administration, depending on new emerging PK data.
The number of patients with leptomeningeal involvement of their tumours is capped at 33% in each cohort. To avoid exposing participants to undue risk of toxicity, the maximum allowable dose increment recommended by the mCRM EWOC (modified continual reassessment method escalation with overdose control) design will be 100% (i.e., a 2-fold increase). […] The mCRM-EWOC will be adapted to the new dosing regimen.
Safety assessments will consist of monitoring and recording AEs, including serious AEs (SAEs) and non-SAEs of special interest (NSAESI); measurement of protocol-specified safety laboratory assessments; measurement of protocol-specified vital signs, ECGs; and other protocol-specified tests that are deemed critical to the safety evaluation of the study.
Data set [2] is described as follows: Food Cohort: food effect on PK (high-fat meal vs fasted). The class given is in vivo, human. As to conditions: fed cohort vs fasted, preliminary PK data, FIG. 3. The source says:
Part 1—Food Cohort: The food effect (FE) on the PK of Compound Ia will be evaluated in Part 1a (Compound Ia monotherapy) or in Part 1b (Compound Ia in combination with cobimetinib) at the MTD and/or RP2D, or at dose levels close to the RP2D and/or MTD of Compound Ia with or without cobimetinib. For exploring the effect of food intake, participants will receive Compound Ia after a high-fat meal (Group 1) or following a 10-hour fast (Group 2) using a parallel design. For this pilot FE evaluation, a minimum of 6 evaluable participants will be enrolled.
Meals and Dietary Restrictions: Generally, for participants receiving Compound Ia, no dietary restrictions are foreseen. A preliminary assessment of the FE (food effect) on the PK of Compound Ia will be done in Part 1 to inform about potential dietary requirements for the dose expansion (Part 2) in case a FE is observed. For participants receiving cobimetinib, the use of grapefruit juice, a potent CYP3A4 enzyme inhibitor, is prohibited during the study and for 30 days after the last dose of study treatment. For Participants in Food Cohort in the Food Cohort of Part 1, the effect of food on the systemic exposure of Compound Ia will be explored close to the MTD and/or at RP2D or relevant dose levels for a minimum of 6 participants. […] The food intake during the high-fat meal plus calories and fat content will be recorded.

Data set [3] is described as follows: Solubility / biopharmaceutics classification. The class given is physicochemical. As to conditions: for solubility across the physiological pH range: behaves like a weak acid.
The conditions of data set [4]: in vivo.
Method: In a Pilot PK Cohort prior to the dose-escalation in Part 1a (monotherapy), the PK of Compound Ia was explored after a single, oral dose of 25 mg in 2 participants to address the PK uncertainty.
Blood samples to evaluate concentrations of Compound Ia and cobimetinib (and its metabolite[s], if appropriate) will be collected. The date and time of each sample collection will be recorded. Compound Ia and cobimetinib levels will be analyzed by using validated LC-MS/MS assays. […] Dedicated PK samples will be collected for the Pilot PK Cohort and the Food Cohort at pre-defined timepoints.
PK parameters for Compound Ia administered alone and in combination with cobimetinib will be derived from the plasma concentrations and will be listed and summarized using descriptive statistics (such as mean, standard deviation, coefficient of variation, median, minimum, and maximum). The PK parameters will include but are not limited to area under the curve (AUC), maximum concentration (Cmax), time of maximum concentration observed (Tmax) and, apparent oral clearance (CL/F), volume of distribution at steady-state (Vss/F), and terminal half-life (t½). Estimation of PK parameters may be performed using standard non-compartmental methods and/or population PK modeling. If data allow, other methods may be used for data analysis, e.g., PK and PD data may be used to develop a population PK/PD model. Individual and mean plasma Compound Ia concentration versus time data will be tabulated and plotted by dose levels. […] The linearity of PK (AUC and Cmax) will be investigated. To assess the FE on the PK of Compound Ia, PK parameters (such as AUC, Cmax, Tmax and t1/2) will be analyzed following oral administration of Compound Ia while either fed (high-fat meal) or fasted for a minimum of 6 participants. Estimation of PK parameters may be performed using standard non-compartmental methods and/or population PK modeling. Furthermore, Compound Ia CSF concentrations (where applicable) might be presented by listings and descriptive summary statistics (such as mean, standard deviation, coefficient of variation, median, minimum, and maximum). If data allow, other methods may be used for data analysis, e.g., PK and PD data may be used to develop a population PK/PD model.
Data set [5] can be described thus: Non-clinical safety benchmark dose in rats.
A short description of the next data set: clinical. As to conditions: human, in vivo, po, 25 mg.

As a reminder, the NOAEL is the highest tested level that showed no adverse finding. In general, half-life refers to the time in which the quantity being followed falls by half. Read a high half-life as slow loss. As to `Cn1cnc2ccc(Oc3c(F)ccc(NS(=O)(=O)N4CC[C@@H](F)C4)c3C#N)cc2c1=O` [Compound Ia, (3R)—N-[2-cyano-4-fluoro-3-(3-methyl-4-oxo-quinazolin-6-yl)oxy-phenyl]-3-fluoro-pyrrolidine-1-sulfonamide], in data set [1], the “drug related Grade 3 adverse events” value was “less than 25%”. For the same compound, in data set [2], the “effect of food on AUCINF (AUC0-∞)” value is listed as “did not significantly alter” and the “effect of food on Cmax” value is recorded as “lower Cmax”. Besides, in data set [3], the “biopharmaceutics classification system class” value is recorded as “class 2”; the solubility entry was “low and pH dependent solubility”; the “solubility across the physiological pH range” value was “purely soluble at low pH with increasing solubility at neutral and alkaline pH”. In data set [3] (listed as compound of formula (I)), the “solubility across the physiological pH range” value is “poorly soluble at low pH with increasing solubility at neutral and alkaline pH”. In data set [4], the “safety margin based on unbound AUC0-∞ to the safety benchmark dose of 200 mg/kg/day in rat” value amounted to 22 fold and the “safety margin based on unbound Cmax to the safety benchmark dose of 200 mg/kg/day in rat” value turned out to be 4 fold. Further, in data set [4] (rat), the “safety margin based on preliminary unbound AUC0-∞ to the safety benchmark dose of 200 mg/kg/day in rats” value was determined as 174 fold and the “safety margin based on preliminary unbound Cmax to the safety benchmark dose of 200 mg/kg/day in rats” value came to 32 fold. Besides, the no observed adverse effect level (NOAEL) in data set [5] (rat, in vivo) came out at 200 mg/kg/day. For the same compound, the “safety benchmark dose (toxic dose in 10% of animals)” value in data set [5] (rats) turned out to be 200 mg/kg/day. This compound came in with a half-life in the data set “clinical” of 2 to 4 h.

For the origin of these results see patent publication US20250339432A1, “QUINAZOLINONE COMPOUND AS BRAF INHIBITOR FOR THE TREATMENT OF ADVANCED SOLID CANCER OR METASTASES” (Hoffmann-La Roche Inc., priority 2022, published 2025).
